Experimental data published in ChEMBL document CHEMBL3046274, “Toxicity of imidacloprid to developmental stages of Rhynchophorus ferrugineus (Curculionidae: Coleoptera): Laboratory and field tests” (Crop Prot, 2006).
Activity calls are given as the source filed them. The calls are words filed in the database; no cut-off is given here.

Experiments:
[1] = tested on: Rhynchophorus ferrugineus; test: Pesticidal activity against Rhynchophorus ferrugineus (red palm weevil) larvae assessed as mortality at 4 ppm, po at 48 hr post-treatment relative to control; type: functional
[2] = tested on: Rhynchophorus ferrugineus; test: Pesticidal activity against Rhynchophorus ferrugineus (red palm weevil) larvae assessed as mortality at 6 ppm, po at 48 hr post-treatment relative to control; type: functional
[3] = tested on: Rhynchophorus ferrugineus; test: Pesticidal activity against Rhynchophorus ferrugineus (red palm weevil) larvae assessed as mortality at 0.5 ppm, po at 114 hr post-treatment relative to control; type: functional
[4] = tested on: Rhynchophorus ferrugineus; test: Pesticidal activity against Rhynchophorus ferrugineus (red palm weevil) larvae assessed as mortality at 0.5 ppm, po at 72 hr post-treatment relative to control; type: functional
[5] = tested on: Rhynchophorus ferrugineus; test: Pesticidal activity against Rhynchophorus ferrugineus (red palm weevil) larvae assessed as mortality at 4 ppm, po at 72 hr post-treatment relative to control; type: functional
[6] = tested on: Rhynchophorus ferrugineus; test: Pesticidal activity against Rhynchophorus ferrugineus (red palm weevil) larvae assessed as mortality at 0.5 ppm, po at 48 hr post-treatment relative to control; type: functional
[7] = tested on: Rhynchophorus ferrugineus; test: Pesticidal activity against adult Rhynchophorus ferrugineus (red palm weevil) infested date palm tree assessed as mortality of collected live stage at 20 ml/4l of water applied through soil-drench irrigation measured after 3 weeks relative to control; type: functional
[8] = tested on: Rhynchophorus ferrugineus; test: Pesticidal activity against Rhynchophorus ferrugineus (red palm weevil) larvae infested date palm tree assessed as mortality at 20 ml/4l of water applied through soil-drench irrigation measured after 3 weeks relative to control; type: functional
[9] = tested on: Rhynchophorus ferrugineus; test: Pesticidal activity against adult Rhynchophorus ferrugineus (red palm weevil) assessed as mortality at 1000 ppm administered topically at 36 hr post-treatment; type: functional
[10] = tested on: Rhynchophorus ferrugineus; test: Pesticidal activity against Rhynchophorus ferrugineus (red palm weevil) cocoon assessed as mortality at 0.5 ppm administered by dipping for 3 min measured at 90 hr post-treatment relative to control; type: functional
[11] = tested on: Rhynchophorus ferrugineus; test: Contact toxicity against Rhynchophorus ferrugineus (red palm weevil) adults assessed as time required for 100% mortality at 1.5 ml/l for 5 min; type: functional
[12] = tested on: Rhynchophorus ferrugineus; test: Contact toxicity against Rhynchophorus ferrugineus (red palm weevil) adults assessed as time required for 50% reversible knockdown at 3.5 ml/l for 5 min; type: functional
[13] = tested on: Rhynchophorus ferrugineus; test: Contact toxicity against Rhynchophorus ferrugineus (red palm weevil) adults assessed as time required for 50% reversible knockdown at 2.5 ml/l for 5 min; type: functional
[14] = tested on: Rhynchophorus ferrugineus; test: Contact toxicity against Rhynchophorus ferrugineus (red palm weevil) adults assessed as time required for 50% mortality at 3.5 ml/l for 2 min; type: functional
[15] = tested on: Rhynchophorus ferrugineus; test: Contact toxicity against Rhynchophorus ferrugineus (red palm weevil) adults assessed as time required for 50% mortality at 1.5 ml/l for 2 min; type: functional
[16] = tested on: Rhynchophorus ferrugineus; test: Contact toxicity against Rhynchophorus ferrugineus (red palm weevil) adults assessed as time required for 100% reversible knockdown at 1.5 ml/l for 2 min; type: functional
[17] = tested on: Rhynchophorus ferrugineus; test: Pesticidal activity against Rhynchophorus ferrugineus (red palm weevil) cocoon assessed as mortality of emerged adult at low concentration administered by dipping for 3 min measured up to 1 week after emergence; type: functional, organism-based
[18] = tested on: Rhynchophorus ferrugineus; test: Pesticidal activity against Rhynchophorus ferrugineus (red palm weevil) larvae infested date palm tree assessed as non-feeding status of collected live stage larvae at 20 ml/4l of water applied through soil-drench irrigation measured after 3 weeks relative to control; type: functional, organism-based
[19] = tested on: Rhynchophorus ferrugineus; test: Pesticidal activity against Rhynchophorus ferrugineus (red palm weevil) cocoon assessed as mortality at 4 ppm administered by dipping for 3 min measured at 48 hr post-treatment relative to control; type: functional
[20] = tested on: Rhynchophorus ferrugineus; test: Pesticidal activity against adult Rhynchophorus ferrugineus (red palm weevil) assessed as mortality at 0.5 ppm, po at 18 hr post-treatment relative to control; type: functional
[21] = tested on: Rhynchophorus ferrugineus; test: Pesticidal activity against adult Rhynchophorus ferrugineus (red palm weevil) assessed as mortality at 1 ppm, po at 18 hr post-treatment relative to control; type: functional
[22] = tested on: Rhynchophorus ferrugineus; test: Pesticidal activity against Rhynchophorus ferrugineus (red palm weevil) larvae assessed as mortality at 1 ppm, po at 24 hr post-treatment relative to control; type: functional
[23] = tested on: Rhynchophorus ferrugineus; test: Pesticidal activity against Rhynchophorus ferrugineus (red palm weevil) larvae assessed as mortality at 0.5 ppm, po at 18 hr post-treatment relative to control; type: functional
[24] = tested on: Rhynchophorus ferrugineus; test: Pesticidal activity against Rhynchophorus ferrugineus (red palm weevil) larvae assessed as mortality at 1.5 ppm, po at 18 hr post-treatment relative to control; type: functional
[25] = tested on: Rhynchophorus ferrugineus; test: Pesticidal activity against adult Rhynchophorus ferrugineus (red palm weevil) assessed as mortality at 1 ppm, po at 114 hr post-treatment relative to control; type: functional
[26] = tested on: Rhynchophorus ferrugineus; test: Pesticidal activity against adult Rhynchophorus ferrugineus (red palm weevil) assessed as mortality at 2 ppm, po at 114 hr post-treatment relative to control; type: functional
[27] = tested on: Rhynchophorus ferrugineus; test: Pesticidal activity against Rhynchophorus ferrugineus (red palm weevil) larvae assessed as mortality at 100 ppm administered topically at 48 hr post-treatment; type: functional
[28] = tested on: Rhynchophorus ferrugineus; test: Pesticidal activity against Rhynchophorus ferrugineus (red palm weevil) larvae assessed as mortality at 300 ppm administered topically at 48 hr post-treatment; type: functional
[29] = tested on: Rhynchophorus ferrugineus; test: Pesticidal activity against Rhynchophorus ferrugineus (red palm weevil) larvae assessed as mortality at 100 ppm administered topically at 36 hr post-treatment; type: functional
[30] = tested on: Rhynchophorus ferrugineus; test: Pesticidal activity against Rhynchophorus ferrugineus (red palm weevil) cocoons assessed as time required for total mortality at 3.5 ml/l administered by dipping for 30 secs; type: functional
[31] = tested on: Rhynchophorus ferrugineus; test: Pesticidal activity against Rhynchophorus ferrugineus (red palm weevil) cocoons assessed as time required for total mortality at 1.5 ml/l administered by dipping for 30 secs; type: functional
[32] = tested on: Rhynchophorus ferrugineus; test: Pesticidal activity against Rhynchophorus ferrugineus (red palm weevil) cocoons assessed as time required for total mortality at 3.5 ml/l administered by dipping for 10 secs; type: functional
[33] = tested on: Rhynchophorus ferrugineus; test: Pesticidal activity against Rhynchophorus ferrugineus (red palm weevil) cocoons assessed as time required for total mortality at 2.5 ml/l administered by dipping for 10 secs; type: functional
[34] = tested on: Rhynchophorus ferrugineus; test: Pesticidal activity against Rhynchophorus ferrugineus (red palm weevil) cocoons assessed as time required for total mortality at 3.5 ml/l administered by dipping for 5 secs; type: functional
[35] = tested on: Rhynchophorus ferrugineus; test: Pesticidal activity against Rhynchophorus ferrugineus (red palm weevil) cocoons assessed as time required for total mortality at 2.5 ml/l administered by dipping for 5 secs; type: functional
[36] = tested on: Rhynchophorus ferrugineus; test: Pesticidal activity against adult Rhynchophorus ferrugineus (red palm weevil) assessed as time required for 100% mortality at 3.5 ml/l administered topically; type: functional
[37] = tested on: Rhynchophorus ferrugineus; test: Pesticidal activity against adult Rhynchophorus ferrugineus (red palm weevil) assessed as mortality at 300 ppm administered topically at 72 hr post-treatment; type: functional
[38] = tested on: Rhynchophorus ferrugineus; test: Pesticidal activity against adult Rhynchophorus ferrugineus (red palm weevil) assessed as mortality at 500 ppm administered topically at 72 hr post-treatment; type: functional
[39] = tested on: Rhynchophorus ferrugineus; test: Pesticidal activity against adult Rhynchophorus ferrugineus (red palm weevil) assessed as mortality at 1000 ppm administered topically at 72 hr post-treatment; type: functional
[40] = tested on: Rhynchophorus ferrugineus; test: Pesticidal activity against Rhynchophorus ferrugineus (red palm weevil) larvae assessed as mortality at 1000 ppm administered topically at 36 hr post-treatment; type: functional
[41] = tested on: Rhynchophorus ferrugineus; test: Pesticidal activity against Rhynchophorus ferrugineus (red palm weevil) larvae assessed as mortality at 100 ppm administered topically at 18 hr post-treatment; type: functional
[42] = tested on: Rhynchophorus ferrugineus; test: Pesticidal activity against adult Rhynchophorus ferrugineus (red palm weevil) assessed as time required for 100% mortality at 2.5 ml/l administered topically; type: functional

Q: Which Activity [1] does the source give for O=[N+]([O-])/N=C1\NCCN1Cc1ccc(Cl)nc1 [IMIDACLOPRID] here?
A: 100%

Q: And the Activity [2]?
A: 100%

Q: What about the Activity [3] of the same compound?
A: 100%

Q: And the Activity [4]?
A: 38.9%

Q: And the Activity [5]?
A: 100%

Q: What about the Activity [6] of the same compound?
A: 38.9%

Q: And the Activity [7]?
A: 100%

Q: And the Activity [8]?
A: 61.9%

Q: And the Activity [9]?
A: 100%

Q: What about the Activity [10] of the same compound?
A: 38.9%

Q: And the Time [11]?
A: 8.1 days

Q: And the Time [12]?
A: 1.1 days

Q: And the Time [13]?
A: 1.1 days

Q: And the Time [14]?
A: 4.1 days

Q: What about the Time [15] of the same compound?
A: 10.1 days

Q: And the Time [16]?
A: 9 days

Q: And the Activity [17]?
A: inactive

Q: And the Activity [18]?
A: Active

Q: And the Activity [19]?
A: 44.4%

Q: And the Activity [20]?
A: 0%

Q: And the Activity [21]?
A: 38.9%

Q: And the Activity [22]?
A: 0%

Q: And the Activity [23]?
A: 0%

Q: What about the Activity [24] of the same compound?
A: 72.2%

Q: What about the Activity [25] of the same compound?
A: 72.2%

Q: What about the Activity [26] of the same compound?
A: 100%

Q: And the Activity [27]?
A: 0%

Q: And the Activity [28]?
A: 0%

Q: What about the Activity [29] of the same compound?
A: 0%

Q: And the Time [30]?
A: 3.2 days

Q: And the Time [31]?
A: 9.6 days

Q: What about the Time [32] of the same compound?
A: 6 days

Q: And the Time [33]?
A: 9.6 days

Q: What about the Time [34] of the same compound?
A: 5.9 days

Q: What about the Time [35] of the same compound?
A: 9.5 days

Q: And the Time [36]?
A: 6.1 days

Q: What about the Activity [37] of the same compound?
A: 100%

Q: And the Activity [38]?
A: 72.2%

Q: What about the Activity [39] of the same compound?
A: 100%

Q: What about the Activity [40] of the same compound?
A: 72.2%

Q: What about the Activity [41] of the same compound?
A: 0%

Q: What about the Time [42] of the same compound?
A: 8.8 days
